Results taken from patent US5525598A, “Gallium (III) complexes in pharmaceutical compositions” (Collery; Phillippe, priority 1991, dated 1996).
Like-named read-outs stand apart in the source and are kept apart here.

Experiments:
[1] = system: human immunodeficiency virus (HIV-1); assay: Anti-HIV-1 activity, protection of T4 lymphocytes from killing by virus (NCI XTT assay); type: cell-based
Source text: (§1) The gallium (III) complexes were screened for anti-HIV-1 activity at the National Cancer Institute, Bethesda, Md., as part of their in vitro Anti-AIDS Drug Discovery Program. The assay is based on the killing (cytopathic effect) of T4 lymphocytes by human immunodeficiency virus (HIV-1) and is designed to evaluate the drug effects at any stage of the virus reproductive cycle. […] All tests are compared with a positive control done at the same time and under identical conditions employing 3'-Azido-3'-deoxythymidine (AZT).
(§2) The general procedure is reprinted below from NCI infomation sheets:
(§3) 1. Candidate agent is dissolved in dimethylsulfoxide, then diluted 1:2000 in cell culture medium. […] dilutions (half-log10) are prepared before adding to 96-well microtiter plated.
(§4) 2. T4 lymphocytes (CEN cell line) are exposed to HIV at a virus-to-cell ratio of approximately 0.05 and are plated along with noninfected control cells into drug-containing wells or wells with medium alone.
(§5) 3. Cultures are incubated at 37° C. in a 5% carbon dioxide atmosphere for 6 days.
(§6) 4. The tetrazolium salt, XTT, is added to all wells, and cultures are incubated to allow formazon colour development by viable cells.
(§7) 5. Individual wells are analysed spectrophotometrically to quantitate formazon production and, in addition, are viewed microscopically for detection of viable cells and confirmation of protective activity.
(§8) 6. Drug-treated virus-infected cells are compared with drug-treated noninfected cells and with other appropriate controls (untreated infected and untreated noninfected cells, drug-containing wells without cells, etc.) on the same plate.
(§9) 7. Data reviewed in comparison with other tests done at the same time, and a determination about activity is made.

T4 lymphocytes [2] = assay: Drug effect on noninfected T4 lymphocytes (NCI XTT assay), IC50; type: cell-based
Source text: as §1, §2, §3, §4, §5, §6, §7, §8, §9

[3] = per os, aqueous formulation, therapeutical dosages; EP-B1-0059148; cited from earlier work
P-388 leukaemia = assay: Antitumor activity, P-388 leukaemia, survival T/C; type: in vivo; details: P 388 system
sarcoma 180 = sarcoma 180 system
Experimental: The gallium complexes were administered to animals bearing the P-388 leukaemia or the sarcoma 180 system and the average survival time (T) of the treated animals was compared with the average survival of control animals C. A high value T/C is characteristic of an antitumoral activity. [formula]

[4] = system: experimental animal tumors; details: Adamson et al. 1975; cited from earlier work
[5] = system: reverse transcriptase of Rauscher murine leukemia virus; details: in vitro; Waalkes et al. 1974; cited from earlier work
refractory lymphomas = details: phase II trials, patients with refractory lymphomas; Foster et al. 1986; cited from earlier work
[6] = system: human immunodeficiency virus (HIV-1); details: cited from earlier work; for EC50: read-out: EC50 (anti-HIV activity)
T4 lymphocytes [7] = details: cited from earlier work
[8] = CEM-SS, values from O. S. Weislow et al.
[9] = CEM, values from R. Vince et al.

With “trans-Dichlorotetrakis-(benzimidazole)gallium(III) chloride [[(bim)4 GaCl2]Cl]” the EC50 ([1]; CEM-6) was 5.01 µM, the “TI = IC50 /EC50” value ([1]; CEM-6) was 76.9 and the IC50 (T4 lymphocytes [2]; CEM-6) was 385 µM.
In the case of [Cl-].[Cl-].[Cl-].[Ga+3] [GaCl3, gallium (III) chloride], the renal toxicity [3] is given as “no renal toxicity”.
For Cc1ccn[nH]1.Cc1ccn[nH]1.Cc1ccn[nH]1.Cc1ccn[nH]1.[Cl-].[Cl-].[Cl][Ga-]([Cl])([Cl])[Cl].[Ga+3] [[(3-mpyr)4 GaCl2]GaCl4, trans-Dichlorotetrakis-(5-methylpyrazole)gallium (III) tetrachlorogallate (III)], the EC50 ([1]; CEM-6) was 108 µM, the “TI = IC50 /EC50” value ([1]; CEM-6) was 1.52 and the IC50 (T4 lymphocytes [2]; CEM-6) was 164 µM.
In the case of Cc1cn[nH]c1.Cc1cn[nH]c1.Cc1cn[nH]c1.Cc1cn[nH]c1.[Cl-].[Cl-].[Cl][Ga-]([Cl])([Cl])[Cl].[Ga+3] [[(4-mpyr)4 GaCl2]GaCl4, trans-Dichlorotetrakis-(4-methylpyrazole)gallium(II) tetrachlorogallate(III)], the EC50 ([1]; CEM-6) is reported as 231 µM, the “TI = IC50 /EC50” value ([1]; CEM-6) is reported as 1.11 and the EC50 ([1]; CEM-IW) is reported as 50.2 µM. For the same molecule, the “TI = IC50 /EC50” value ([1]; CEM-IW) was 3.92, the IC50 (T4 lymphocytes [2]; CEM-6) was 256 µM and the IC50 (T4 lymphocytes [2]; CEM-IW) was 197 µM.
In the case of “Dichloro-(2-α-oxybenzylbenzimidzoiato-N,O)gallium(III) [(HBB)GaCl2]”, the EC50 ([1]; CEM-IW) is reported as 43 µM, the “TI = IC50 /EC50” value ([1]; CEM-IW) is reported as 5.14 and the IC50 (T4 lymphocytes [2]; CEM-IW) is reported as 221 µM. For the same molecule, the “T/C (survival time of treated versus control animals)” value (P-388 leukaemia) was 130%.
For O=S(=O)([O-])c1ccc([O-])c2ncccc12.O=S(=O)([O-])c1ccc([O-])c2ncccc12.O=S(=O)([O-])c1ccc([O-])c2ncccc12.[Ga+3].[K+].[K+].[K+] [Tris-(5-sulfono-8-hydroxyquinoline)gallium(III)-potassium salt], the “T/C (survival time of treated versus control animals)” value (sarcoma 180) was 153%.
For O=[N+]([O-])[O-].O=[N+]([O-])[O-].O=[N+]([O-])[O-].[Ga+3] [gallium nitrate], the antitumor activity [4] is listed as “had shown antitumor activity”, the “inhibition of reverse transcriptase” value [5] is listed as “inhibits the reverse transcriptase” and the antitumor activity (refractory lymphomas) is listed as “exhibits antitumor activity”.
In the case of Cc1cn([C@H]2C[C@H](N=[N+]=[N-])[C@@H](CO)O2)c(=O)[nH]c1=O [AZT, 3'-Azido-3'-deoxythymidine], the “TI = IC50 /EC50” value [6, 8] is given as 1027, the EC50 [6, 8] is given as 0.186 µM and the “TI = IC50 /EC50” value [6, 9] is given as 3680. For the same molecule, the EC50 [6, 9] was 0.187 µM, the IC50 (T4 lymphocytes [7]; [8]) was 191 µM and the IC50 (T4 lymphocytes [7]; [9]) was 689 µM.
